Source: article PMC12072186, “A Novel Small Molecule Enhances Stable Dopamine Delivery to the Brain in Models of Parkinson’s Disease” (International Journal of Molecular Sciences, 2025)

Tests used:
[1] = test system: MPTP-treated C57BL/6 mice; assay: Grip strength test in MPTP-treated mice; type: in vivo, mouse; conditions: MPTP 25 mg/kg i.p. day 1–5; treatment day 1–13; vs MPTP vehicle control
Protocol: (§1) MPTP was injected to male C57BL/6 mice for 5 consecutive days (Figure 4A) to destroy DA neurons, and then the mice were treated with Pegasus alone or Pegasus + Benserazide compared to L-dopa alone or L-Dopa + Benserazide.
(§2) From day 1 to day 5, MPTP was administered to all the groups except Naive at a dose of 25 mg/kg, i.p., QD. Treatment with Pegasus alone (50 mg/kg, i.p., BID), a combination of Pegasus 50 mg/kg, BID + Benserazide 10 mg/kg, QD, or a combination of L-Dopa 10 mg/kg, QD + Benserazide 10 mg/kg, QD or standalone L-Dopa 10 mg/kg, QD, started on day 1 and continued until day 13. On day 13, after the first dose of Pegasus, 4 animals/time point from each group were sacrificed at 0.5, 1, 3, 6, and 12 h, and the blood and brains were collected.
The maximal muscle/grip strength of forelimbs was measured using a strength meter.

[2] = test system: MPTP-treated C57BL/6 mice; assay: Rotarod test in MPTP-treated mice; type: in vivo, mouse; conditions: MPTP 25 mg/kg i.p. day 1–5; treatment day 1–13; vs MPTP vehicle control
Protocol: as §1, §2
The mice were placed on an accelerating Rotarod (Columbus Instruments, Columbus, OH, USA) equipped with individual timers for each mouse. […] The mice were trained for 3 consecutive days before the final measurement.

[3] = test system: tyrosine hydroxylase (TH+)-positive neurons; assay: Tyrosine hydroxylase immunohistochemistry (DAB staining); type: in vivo, mouse; conditions: vs DMSO
Protocol: To further examine whether Pegasus has any effects on DA-producing neurons, we performed immunohistochemistry to visualize tyrosine hydroxylase (TH+)-positive neurons in both the SN and striatum in Pegasus-treated versus untreated mice. TH is a rate-limiting enzyme in the biosynthesis of DA in the brain. We used DAB staining to highlight the TH+ neurons.
Animals were deeply anesthetized with a mixture of Xylazine and Ketamine (8:80 mg/kg), washed with normal saline for 1 min, and then perfused with 4% paraformaldehyde (PFA) for 15 min. The brains were dissected out and immediately stored in 4% PFA for 24 h at 4 °C, and then transferred to 30% sucrose at 4 °C for 48 h. The brains were cut using a cryostat microtome into 20 µm thick coronal sections and stored at −20 °C. Staining for tyrosine hydroxylase (TH) was probed with anti-tyrosine hydroxylase antibody (Cat No: AB152, Sigma-Aldrich, St. Louis, MO, USA). GFAP (glial fibrillary acidic protein) was stained with anti-GFAP monoclonal antibody (Cat No:MS1376P1, Fisher Scientific, Newington, NH, USA). […] TH^+ cells were counted in a stereology-like manner across multiple visual fields (typically 20 fields) in a single animal, and the same procedure was repeated on several animals to obtain the best approximation of TH staining.

TgA53T mice [4] = assay: Tolerated dose, dose escalation study; type: in vivo
Protocol: Pegasus synthesis and the D5 control derivative of tetracycline were previously described. Pegasus is a 652.2 Da small molecule that consists of one DA conjugated to tetracycline via a molecular linker (Figure 1A). […] We determined a tolerated dose of Pegasus in young (6–7 months old) and old (11–12 months old) TgA53T mice (IP, once daily) treated with an ascending dose of Pegasus of 10 mg/kg, 50 mg/kg, and 75 mg/kg for 4 consecutive days (Figure 1B). Pegasus was tolerated up to 75 mg/kg without visible adverse effects. […] We then reduced the dose to 75 mg/kg for another week.
Tissue toxicity was assessed in young (6–7-month-old) and old (12–13-month-old) A53T mice. The mice received daily i.p. escalating doses of Pegasus or control D5 (tetracycline derivative with no DA) vs. DMSO of 10, 25, 50, and 100 mg/kg for 4 days with each dose up to 16 days, and tissues were analyzed via caspase-3 activity. The caspase-3 activity assay (EnzChek® Invitrogen, Waltham, MA, USA) was conducted according to manufacturer’s protocols as we previously described.

[5] = Plasma binding by equilibrium dialysis; type: in vitro ADME; conditions: mouse, rat, dog, and human plasma
Excerpt: Many of the metabolites were formed after the amide cleavage of the parent, Pegasus, into the tetracycline or the DA scaffold and further biotransformation of those scaffolds. […] Both M8 and M11 are abundantly detected in the brain and the blood in rats and the relative abundance of brain–plasma is 318 and 131%, respectively. […] Furthermore, Pegasus is […] bound to mouse, rat, dog, and human plasma (Avg. 91–98%) using the equilibrium dialysis method.

TgA53T mice [6] = assay: Elevated plus maze test in TgA53T mice; type: in vivo, mouse; conditions: 50 mg/kg i.p., vs DMSO
[7] = In vivo metabolism, metabolite profiling in rat brain and plasma (LC-MS/MS)
Protocol: In vivo metabolism: We performed a metabolism study (Figure 2) in male Sprague Dawley rats (6–8 weeks old) after a single i.p. injection of 50 mg/kg Pegasus. Plasma and brain samples were serially collected and assessed for the presence of possible phase-I and phase-II metabolites. […] The relative abundance of Pegasus and its metabolites in the brain and plasma was determined at the ionization parameters of the parent.
Metabolite profiling was performed in rat brain and plasma samples to detect phase-I and phase-II metabolites in male Sprague Dawley rats (6–8 weeks old, n = 6) injected (i.p.) with 50 mg/kg Pegasus. The formulation vehicle of Pegasus was 5% DMSO + 35% polyethylene glycol (PEG) 400 + 60% normal saline, and this formulation was used to measure the plasma and brain concentrations of Pegasus and all other metabolites. All samples obtained after Pegasus dosing in rats by the i.p. route of administration were used for metabolite profiling and compared to normal saline. Blood (n = 16 samples) was collected via retro-orbital plexus puncture 0.25, 1, 4, 6, 8, and 24 h pre-dose, and brain sampling was 1, 4, and 24 h post-dose (n = 6 per group). The brain samples were cleaned and perfused, then washed with PBS. The brains (approximately 1.5 g) were transferred to a 50 mL centrifuge tube and 36 mL of ice-cold PBS was added. The mixture was homogenized for about 1–2 min to obtain a uniform suspension. The precipitate was allowed to settle for 30 min at 4 °C, and 15 mL of the middle layer was collected. The plasma and brain samples were processed by the protein precipitation method. In total, 175 μL of acetonitrile was added to 25 μL of plasma samples. The samples were mixed, followed by centrifugation at 4000 rpm for 20 min. The supernatant from the samples was subjected to LC-MS/MS analysis.
The samples were analyzed by liquid chromatography tandem mass spectrometry (HPLC: LC series, Shimadzu, Chiyoda-ku, Tokyo, Japan; mass spectrometer: API4000 Triple Quad mass spectrometer, Applied Biosystems, Carlsbad, CA, USA). The samples (n = 6) were processed using protein precipitation and 1 mM stock solution, prepared in DMSO, spiked into acetonitrile to a final concentration of 4 µM, and processed using liquid chromatography tandem mass spectrometry, employing a linear gradient method using MH+/MH−(Q1) and product ion (MS/MS) scans. The evaluation of the Pegasus metabolites included demethylation, de-hydroxylation, amide cleavage, oxidation, de-hydrogenation, glucuronidation, sulfation, glutathione conjugation, and several other possibilities. The relative abundance of Pegasus and its metabolites in the brain and plasma was determined at the ionization parameters of the parent.

[8] = 50 mg/kg Pegasus i.p., Sprague Dawley rats

## C[C@H]1c2ccc(NC(=O)CCC(=O)NCCc3ccc(O)c(O)c3)c(O)c2C(=O)C2=C(O)[C@]3(O)C(=O)C(C(N)=O)=C(O)CC3[C@@H](O)C21 (stereo partly shown) [Pegasus]
[1]
  Forelimb grip strength: significantly reversed back to normal levels
[2]
  Latency to fall (Rotarod): significantly increased latency to fall
[3]; young (6–7-month-old) and old (12–13-month-old) TgA53T mice
  Cell count of TH+ neurons in the SN: dramatically increases the cell count
[3]; young and old TgA53T mice
  DA nerve terminals (TH+) in the striatum: dramatically increases
TgA53T mice [4]; 50 mg/kg, mice
  Visible side effects at 50 mg/kg: no visible side effects
TgA53T mice [4]; 100 mg/kg, male and female 12–13 months old mice
  Adverse effects at 100 mg/kg: some scruffiness and weakness at Day16, and one mouse showed gut toxicity at autopsy
TgA53T mice [4]; TgA53T, mouse, in vivo, ip, 4 days per dose level
  Tolerated dose: up to 75 mg/kg
TgA53T mice [4]; dose reduced to 75 mg/kg for another week
  Adverse effects at autopsy after dose reduction: no adverse effects were detected
[5]
  Plasma binding (Avg.): 91–98%
TgA53T mice [6]
  Elevated plus maze total distance traveled: significantly decreased
  Elevated plus maze total number of entries to arms: significantly decreased
  Percentage of entries to open arms: increased
  Percentage of time spent in open arms: increased
[7]; [8]
  Observed in Rat Brain: not detected
  Observed in Rat Plasma: very small
[7]; male, Sprague Dawley, intraperitoneal, 50 mg/kg, relative abundance brain vs plasma, rat
  Kp: 0
